Measured values published in patent publication US11191820B2, “Method for inducing early T memory response with short peptides anti-tumor vaccine” (OSE IMMUNOTHERAPEUTICS, priority 2015, dated 2021).

Assays:
Assay type in all cases: in vivo, human
[1] = tested on: central memory T cells; experiment: Central memory T cell cultured ELISPOT, phase 2 trial in advanced NSCLC
Description: CTL Immune responses measured though cultured Elispot. The immunogenicity was measured in Phase 2 clinical trial on cryopreserved PBMC from each test sample were thawed in 5% human culture medium (RPMI-1640 medium with 25 mM HEPES, supplemented with 5% human AB serum, 4 mM L-glutamine, 0.5 mM sodium pyruvate, 0.1 mM MEM non-essential amino acids, 100 μg/ml streptomycin, and 100 U/ml penicillin) containing 30 μg/ml DNAase. After centrifugation for 5 minutes at 1200 rpm, the cell pellets were resuspended in 5% human culture medium and washed 2 times. For the central Memory T cell cultured ELISPOT assay, 2×10^6/ml PBMC were placed in replicate wells in a 48-well plates and stimulated for 10 days with 10 μg/ml of each peptide. As a positive control, PBMC were also stimulated with a pool of recall viral peptides. Human rIL2 (10 U/ml) was added to the peptide-stimulated cultures at day 1, day 4 and day 7. After 10 days the stimulated cells were harvested and plated at a concentration of 5×10^4/well. Assay wells also received irradiated autologous PBMC (1×10^5/well) and 10 μg/ml peptide, either the vaccine peptide, irrelevant peptide or positive control peptides. Cells stimulated in vitro with each analog epitope were also tested against the corresponding wild-type epitope.
Data analysis and acceptance criteria. Mean and standard deviation (SD) of spots in replicate wells were calculated in all assays by transferring raw ELISPOT data from each experiment to an Excel-based computer program. Positive vaccine-induced T-cell responses were determined according to the criteria described below.
Acceptance Criteria for peptide-Induced specific T-cell response through central memory T cells: The positive criteria for CTL responses used in the phase 2 trial was identical to the criteria in the phase 1/2 trials which was established prospectively after analyzing the variability of pre-treatment responses in patients against each vaccine epitope and the irrelevant HBV control epitope. A positive peptide-induced CTL/T memory response to a given epitope met all of the following conditions: 1) was greater than 5 SFC above the irrelevant epitope response, 2) was greater than the mean SFC of the irrelevant epitope response, plus 2 SD, and 3) was two-fold greater than the SFC response in the pre-vaccination sample from the same patient, plus 2 SD. The inclusion of “plus two standard deviations” was used to accommodate the assay variability and served to increase the criteria stringency.

[2] = tested on: central memory T cells; experiment: Cultured IFN-γ ELISPOT after 10-day in vitro stimulation of PBMC, phase 1/2 NSCLC trial of OSE-2101; parameters: key to net SFC of vaccine positive CTL responses: —, indicates SFC response did not meet criteria and vaccine response was negative; conditions: for Mean SFC / No. Positive Responses: 6 NSCLC patients
Description: (§1) Clinical study design. Both trials were designed as phase 1/2, open label, multi-center, single dose, multiple administration studies to evaluate the safety and immunogenicity of the OSE-2101 immunotherapy. Patients were treated with 1 ml OSE-2101 every 3 weeks for a total of six doses. Each dose was administered subcutaneously in the same vicinity in the deltoid or upper thigh region, or at a contralateral site if local side-effects were observed. The study duration for each completed patient was 18 weeks. Clinical responses or patient survival were not measured in either phase 1/2 studies.
(§2) Clinical sample processing. Blood or leukapheresis product was obtained from patients at the pre-treatment, the Week 9 and Week 18 time points, 3 weeks after the third and sixth dose of OSE-2101 respectively. Peripheral blood mononuclear cells (PBMC) were isolated from samples within 24 hours of collection using a FICOLL-PAQUE density gradient and cryopreserved in containers designed to ensure optimal freezing (Mr. Frosty, Nalgene). For use, cells were rapidly thawed at 37° C. then transferred to human AB serum-containing medium for work-up.
(§3) Measurement of central T memory cells responses and T effector memory cells. The CTL responses in 16 total patients (10 colon and six NSCLC) were monitored for CTL responses against each epitope and against the wild-type epitope of epitopes analogs. For each patient, the pre-treatment, Week 9 and Week 18 time points were batch-tested in the same experiment to allow pre- versus post-treatment response comparison in the same experiment. Central T memory cells responses were measured using an IFN-γ enzyme-linked immunospot (cultured ELISPOT) assay following in vitro stimulation of PBMC for 10 days with each vaccine epitope. Briefly, PBMC from each time point were stimulated on day 0 with 10 μg/ml of each epitope individually in replicate in 48-well culture plates (2×10^6 PBMC/well). All cultures were fed with rIL-2 (Endogen, Woburn, Mass.; 10 U/ml final concentration) on days 1, 4 and 7. Ten days after initiation of culture, cells were harvested and tested for activity against specific vaccine peptides and corresponding wild-type peptides of vaccine analogs in the T memory ELISPOT assay. Cells were tested in Millipore IP 96-well plates pre-coated with mouse anti-human IFN-γ antibody (Mabtech USA, Cincinnati, Ohio). Five×10^4 cells and 1.25×10^4 cells from each culture were plated in triplicate wells together with 10^5 irradiated autologous PBMC and 10 μg/ml peptide. As a control, CTL were also tested against an irrelevant HLA-A2.1-binding HBV peptide. After 20 hours incubation, T memory ELISPOT plates were developed by performing sequential incubations with biotinylated anti-human IFN-γ antibody (Mabtech USA), Avidin-Peroxidase Complex (APC, Vector Laboratories, Burlingame, Calif.), and 3-amino-9-ethyl carbazole (AEC) substrate (Sigma Aldrich, St. Louis, Mo.). Spot-forming cells (SFC) were enumerated using a computer-assisted image analysis system (Zeiss KS ELISPOT Reader, Carl Zeiss MicroImaging, Thornwood, N.J.). Data is reported as the net SFC per 5×10^4 cells after subtracting spots induced with the irrelevant HBV peptide.

[3] = tested on: central memory T cells; experiment: Cultured IFN-γ ELISPOT after 10-day in vitro stimulation of PBMC, phase 1/2 colon cancer trial of OSE-2101; parameters: key to net SFC of vaccine positive CTL responses: —, indicates SFC response did not meet criteria and vaccine response was negative; conditions: for Mean SFC: 10 colon patients
Description: as §1, §2, §3

KVFGSLAFV [HER2.369L2V9 A]
% of patients with positive CTL/central memory T cell response ([1]; phase 2, month 9): 29%
patients with positive CTL/central memory T cell response / patients tested ([1]; phase 2, month 9): 2/7
% of patients with positive CTL/central memory T cell response ([1]; phase 2, month 12): 50%
patients with positive CTL/central memory T cell response / patients tested ([1]; phase 2, month 12): 2/4
% of patients with positive CTL/central memory T cell response ([1]; phase 2, week 9): 42%
patients with positive CTL/central memory T cell response / patients tested ([1]; phase 2, week 9): 14/33
% of patients with positive CTL/central memory T cell response ([1]; phase 2, week 18): 44%
patients with positive CTL/central memory T cell response / patients tested ([1]; phase 2, week 18): 14/32
% of patients with positive CTL/central memory T cell response ([1]; phase 2, week 30): 57%
patients with positive CTL/central memory T cell response / patients tested ([1]; phase 2, week 30): 13/23
Mean SFC ([2]; Week 9): 84.3 SFC per 50,000 cells
No. Positive Responses ([2]; Week 9): 1
Mean SFC ([2]; Week 18): 109.3 SFC per 50,000 cells
No. Positive Responses ([2]; Week 18): 4
net SFC of vaccine positive CTL responses ([2]; NSCLC patient 201, Week 9): —
net SFC of vaccine positive CTL responses ([2]; NSCLC patient 201, Week 18): —
net SFC of vaccine positive CTL responses ([2]; NSCLC patient 502, Week 9): —
net SFC of vaccine positive CTL responses ([2]; NSCLC patient 502, Week 18): —
net SFC of vaccine positive CTL responses ([2]; NSCLC patient 504, Week 9): 84.3 SFC per 50,000 cells
net SFC of vaccine positive CTL responses ([2]; NSCLC patient 504, Week 18): 284.0 SFC per 50,000 cells
net SFC of vaccine positive CTL responses ([2]; NSCLC patient 505, Week 9): —
net SFC of vaccine positive CTL responses ([2]; NSCLC patient 505, Week 18): 53.0 SFC per 50,000 cells
net SFC of vaccine positive CTL responses ([2]; NSCLC patient 532, Week 9): —
net SFC of vaccine positive CTL responses ([2]; NSCLC patient 532, Week 18): 78.3 SFC per 50,000 cells
net SFC of vaccine positive CTL responses ([2]; NSCLC patient 651, Week 9): —
net SFC of vaccine positive CTL responses ([2]; NSCLC patient 651, Week 18): 22.0 SFC per 50,000 cells
Mean SFC ([3]; Week 9): 120.8 SFC per 50,000 cells
Mean SFC ([3]; Week 18): 315.7 SFC per 50,000 cells
net SFC of vaccine positive CTL responses ([3]; colon patient 551, Week 9): 134.7 SFC per 50,000 cells
net SFC of vaccine positive CTL responses ([3]; colon patient 551, Week 18): 80.7 SFC per 50,000 cells
net SFC of vaccine positive CTL responses ([3]; colon patient 601, Week 9): 112.7 SFC per 50,000 cells
net SFC of vaccine positive CTL responses ([3]; colon patient 601, Week 18): 52.3 SFC per 50,000 cells
net SFC of vaccine positive CTL responses ([3]; colon patient 602, Week 9): —
net SFC of vaccine positive CTL responses ([3]; colon patient 602, Week 18): —
net SFC of vaccine positive CTL responses ([3]; colon patient 603, Week 9): 30.0 SFC per 50,000 cells
net SFC of vaccine positive CTL responses ([3]; colon patient 603, Week 18): —
net SFC of vaccine positive CTL responses ([3]; colon patient 604, Week 9): 88.3 SFC per 50,000 cells
net SFC of vaccine positive CTL responses ([3]; colon patient 604, Week 18): 314.7 SFC per 50,000 cells
net SFC of vaccine positive CTL responses ([3]; colon patient 605, Week 9): 32.7 SFC per 50,000 cells
net SFC of vaccine positive CTL responses ([3]; colon patient 605, Week 18): 33.7 SFC per 50,000 cells
net SFC of vaccine positive CTL responses ([3]; colon patient 606, Week 9): —
net SFC of vaccine positive CTL responses ([3]; colon patient 606, Week 18): 71.0 SFC per 50,000 cells
net SFC of vaccine positive CTL responses ([3]; colon patient 607, Week 9): 389.3 SFC per 50,000 cells
net SFC of vaccine positive CTL responses ([3]; colon patient 607, Week 18): 1642.7 SFC per 50,000 cells
net SFC of vaccine positive CTL responses ([3]; colon patient 608, Week 9): —
net SFC of vaccine positive CTL responses ([3]; colon patient 608, Week 18): —
net SFC of vaccine positive CTL responses ([3]; colon patient 609, Week 9): 58.0 SFC per 50,000 cells
net SFC of vaccine positive CTL responses ([3]; colon patient 609, Week 18): 14.7 SFC per 50,000 cells
